Assay results reported in US11497206B2, “Cell cryopreservation protective composition and use thereof” (Tianjin University, priority 2016, dated 2022).
Structures can show the parent of a compound that is named as a salt.

Experiments:
sheep blood cells [1] = experiment: Recovery survival rate of blood cells after cryopreservation in liquid nitrogen, hemolysis by microplate reader; type: cell-based
Method: (§1) (1) The respective cell cryopreservation protective solutions (consisting merely of PBS and the effective ingredients for cryopreservation) were prepared according to the following Table 9; (2) about 1×10^7 sheep blood cells or 20 μL rabbit blood was taken and added into about 1.5 mL to 1.8 mL of the cell cryopreservation protective solutions, and the suspensions were put into suitable freezing tubes and directly placed in liquid nitrogen for cryopreservation; (3) after cryopreservation, the cells were thawed and recovered at 37° C.; the survival rates were investigated by using a microplate reader (trademark: TECAN, model: […] 200 PRO) to determine the hemolysis in each sample, and the method for determining hemolysis is as follows: The recovered samples, a sample of PBS and a sample of water were placed in a centrifuge for centrifugation (2000 r/min, 10 min), and thereafter the supernatants were taken; the light transmittance thereof was measured using the microplate reader and the survival rates of the blood cells were calculated.

sheep blood cells [2] = experiment: Influence of washing operation on survival rate of blood cells after 24 h immersion; details: sheep blood cells immersed 24 h at 37° C., diluted 2 folds with PBS, washed by centrifugation (FIG. 11)
rabbit blood = experiment: Recovery survival rate of blood after cryopreservation in liquid nitrogen, hemolysis by microplate reader; type: cell-based
Method: as §1

[3] = effective ingredient 1 mass % in PBS
[4] = effective ingredient 2 mass % in PBS
[5] = effective ingredient 3 mass % in PBS
[6] = effective ingredient 4 mass % in PBS
[7] = effective ingredient 5 mass % in PBS
[8] = effective ingredient 6 mass % in PBS
[9] = effective ingredient 40 mass % in PBS

SMILES: C[N+](C)(C)CC(=O)[O-] [Betaine, trimethylammonium acetate]
- Recovery cell survival rate (sheep blood cells [1]; [3]): 25.4%
- Recovery cell survival rate (sheep blood cells [1]; [4]): 44.6%
- Recovery cell survival rate (sheep blood cells [1]; [5]): 49.3%
- Recovery cell survival rate (sheep blood cells [1]; [6]): 64.8%
- Recovery cell survival rate (sheep blood cells [1]; [7]): 70.6%
- Recovery cell survival rate (sheep blood cells [1]; [8]): 88.1%
- Survival rates of blood cells before and after washing (sheep blood cells [2]): not affected
- Recovery cell survival rate (rabbit blood; [6]): 55.2%
- Recovery cell survival rate (rabbit blood; [7]): 75.1%
- Recovery cell survival rate (rabbit blood; [8]): 85.4%
- Recovery cell survival rate (rabbit blood; effective ingredient 15 mass % in PBS): 89.0%

SMILES: C=CC(=O)NCCC[N+](C)(C)CCC(=O)[O-] [Carboxybetaine (meth)acrylamide, (3-acryloylaminopropyl)-(2-carboxyethyl)-dimethylammonium]
- Recovery cell survival rate (sheep blood cells [1]; [6]): 71.3%
- Recovery cell survival rate (rabbit blood; [8]): 65.1%

SMILES: C[S+](C)[O-] [DMSO, Dimethyl sulfoxide]
- Recovery cell survival rate (sheep blood cells [1]; [3]): 8.9%
- Recovery cell survival rate (sheep blood cells [1]; [4]): 24.4%
- Recovery cell survival rate (sheep blood cells [1]; [5]): 32.4%
- Recovery cell survival rate (sheep blood cells [1]; [6]): 44.4%
- Recovery cell survival rate (sheep blood cells [1]; [7]): 57.0%
- Recovery cell survival rate (sheep blood cells [1]; [8]): 40.8%

SMILES: OCC(O)CO [Glycerol]
- Recovery cell survival rate (sheep blood cells [1]; [3]): 21.7%
- Recovery cell survival rate (sheep blood cells [1]; [4]): 36.5%
- Recovery cell survival rate (sheep blood cells [1]; [5]): 43.5%
- Recovery cell survival rate (sheep blood cells [1]; [6]): 31.8%
- Recovery cell survival rate (sheep blood cells [1]; [7]): 8.8%
- Recovery cell survival rate (sheep blood cells [1]; [8]): 14.4%
- Recovery cell survival rate (sheep blood cells [1]; effective ingredient 10 mass % in PBS): 35.8%
- Recovery cell survival rate (sheep blood cells [1]; [9]): 48.0%
- Recovery cell survival rate (rabbit blood; [9]): 32.6%

SMILES: C[N+](C)(C)C[C@H](O)CC(=O)[O-] [L-carnitine, 3-carboxy-2-hydroxy-N,N,N-trimethyl-1-propanaminium inner salt (2R)]
- Recovery cell survival rate (sheep blood cells [1]; [8]): 84.0%
- Recovery cell survival rate (rabbit blood; [8]): 84.3%

SMILES: C=C(C)C(=O)OCCOP(=O)([O-])OCC[N+](C)(C)C [Phosphorylcholine derivative, 2-(methacryloyloxy)ethyl-2-(trimethylammonio)ethyl phosphate]
- Recovery cell survival rate (sheep blood cells [1]; [6]): 80.9%
- Recovery cell survival rate (rabbit blood; [8]): 73.9%

SMILES: C=C(C)C(=O)OCC[N+](C)(C)CCCS(=O)(=O)[O-] [Sulfobetaine, 3-[dimethyl-[2-(2-methylprop-2-enoyloxy)ethyl]azaniumyl]propane-1-sulfonate]
- Recovery cell survival rate (sheep blood cells [1]; [6]): 75.6%
- Recovery cell survival rate (rabbit blood; [8]): 73.6%
